The text below walks through data of ChEMBL document CHEMBL4346722, “Recent progress on the discovery of P2Y14 receptor antagonists” (Eur J Med Chem, 2019).

The nature of series [1]: Inhibition of chimpanzee P2Y14 receptor. On the set-up: species or system Pan troglodytes.
The target in series [2] is T1, P2Y purinoceptor 14 (Mus musculus, UniProt Q9ESG6).
T1 sequence (Q9ESG6 whole entry): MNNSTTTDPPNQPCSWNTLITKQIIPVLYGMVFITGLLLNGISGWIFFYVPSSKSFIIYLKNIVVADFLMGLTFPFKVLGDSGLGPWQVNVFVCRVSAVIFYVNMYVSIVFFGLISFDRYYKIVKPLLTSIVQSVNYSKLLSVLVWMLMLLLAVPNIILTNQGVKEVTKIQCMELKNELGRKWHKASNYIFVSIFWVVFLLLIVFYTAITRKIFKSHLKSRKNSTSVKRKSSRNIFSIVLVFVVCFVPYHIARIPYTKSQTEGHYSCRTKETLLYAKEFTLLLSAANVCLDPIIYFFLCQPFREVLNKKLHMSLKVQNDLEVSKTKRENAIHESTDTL
As to the kind of experiment: Inhibition of mouse P2Y14 receptor.

The target of series [3] is T1, P2Y purinoceptor 14. The series can be described thus: Inhibition of mouse P2Y14 receptor in presence of 2% HSA.
Series [4] is described as follows: Clearance in C57BL/6 mouse at 50 mg/kg, po. The conditions noted are these: in vivo. The format is ADME, organism-based.
Series [5] can be described thus: Half life in C57BL/6 mouse at 50 mg/kg, po. The format is ADME, organism-based. The note with it: in vivo.

For orientation: IC50 means the concentration that gives 50% inhibition. A high value points to weaker potency in that assay. By Ki is commonly meant the equilibrium dissociation constant of an inhibitor or competing ligand from its target. As for `Cc1cc(F)cc(C)c1COc1ccc2c(-c3ccsc3)cc(C(=O)O)cc2c1`, in series [1], the IC50 was 4 nM and the Ki was determined as 14 nM.

What is called CL/F is clearance divided by bioavailability, as obtained after extravascular dosing. Usually half-life stands for the time needed for the level to fall by half in the phase considered. Read a low half-life as rapid decline. `O=C(O)c1cc(-c2ccc([C@@H](O)C(F)F)cc2)c2ccc(-c3ccc(C(F)(F)F)cc3)cc2c1`: the Ki on P2Y purinoceptor 14 [2] turned out to be 4 nM; on P2Y purinoceptor 14 [3], 1290 nM. For the same compound, the CL/F in series [4] came to 1.6 mL/min/kg. The compound further had a half-life in series [5] of 3 h.

`O=C(O)c1cc(-c2ccc(C3CCNCC3)cc2)c2ccc(-c3ccc(C(F)(F)F)cc3)cc2c1` [PPTN] gave a Ki in series [1] of 1.9 nM.
